Laboratory results published in the NIST ThermoML archive (doi:10.1021/je050048y).
Numbers after ± are expanded uncertainties.

Test: mn = molality of the nth substance listed, in mol/kg
Conditions: 298.15 K, 101 kPa, Liquid

viscosity (m1 = 0.4991) [mPa·s]	viscosity (m1 = 1.999) [mPa·s]	viscosity (m1 = 3) [mPa·s]	viscosity (m1 = 0.1003) [mPa·s]	viscosity (m1 = 0.4995) [mPa·s]	viscosity (m1 = 0.7497) [mPa·s]	viscosity (m1 = 1) [mPa·s]	SMILES
0.956 ± 0.036	1.189 ± 0.043	1.374 ± 0.049	–	–	–	–	NCC(=O)O [2-aminoacetic acid] + O
–	–	–	0.918 ± 0.034	1.017 ± 0.038	1.079 ± 0.04	1.152 ± 0.042	C[C@H](N)C(=O)O [(S)-2-aminopropanoic acid] + O
